Legend:
[1] = target: ORAS (Neurospora crassa, UniProt Q7S6N4); assay: type III PKS assay, LC-HRMS; type: biochemical; settings: pH 8.0, room temperature, overnight
[2] = target: T1, CsyA (Aspergillus oryzae, UniProt Q53U85); assay: type III PKS assay, LC-HRMS; type: biochemical; settings: malonyl-CoA 2 mM, pH 8.0, room temperature, overnight
T1 sequence (Q53U85 1-402): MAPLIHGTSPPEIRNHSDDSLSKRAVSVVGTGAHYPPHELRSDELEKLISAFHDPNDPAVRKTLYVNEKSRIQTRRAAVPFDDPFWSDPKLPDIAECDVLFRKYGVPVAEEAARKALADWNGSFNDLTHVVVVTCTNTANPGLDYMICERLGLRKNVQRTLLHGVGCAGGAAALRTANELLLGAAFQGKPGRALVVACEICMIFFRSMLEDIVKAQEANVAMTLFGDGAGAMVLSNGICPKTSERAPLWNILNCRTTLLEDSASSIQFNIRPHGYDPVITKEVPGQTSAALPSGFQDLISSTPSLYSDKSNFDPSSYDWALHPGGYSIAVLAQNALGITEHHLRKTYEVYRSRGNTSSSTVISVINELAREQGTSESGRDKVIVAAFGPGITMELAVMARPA

[3] = target: PKS18 (Mycobacterium tuberculosis, UniProt P9WPF1)
Sequence of PKS18 (P9WPF1 whole entry): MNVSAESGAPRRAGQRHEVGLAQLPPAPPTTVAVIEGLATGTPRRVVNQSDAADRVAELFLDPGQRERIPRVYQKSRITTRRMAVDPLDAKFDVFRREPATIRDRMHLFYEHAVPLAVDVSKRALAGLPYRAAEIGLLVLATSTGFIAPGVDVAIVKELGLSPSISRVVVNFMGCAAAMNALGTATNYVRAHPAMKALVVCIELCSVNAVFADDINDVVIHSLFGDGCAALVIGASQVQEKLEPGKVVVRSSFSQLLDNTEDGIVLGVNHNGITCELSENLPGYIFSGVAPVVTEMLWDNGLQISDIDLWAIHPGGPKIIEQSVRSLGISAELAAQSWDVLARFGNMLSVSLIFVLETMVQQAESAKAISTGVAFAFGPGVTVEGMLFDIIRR

| Compound | type III PKS assay, LC-HRMS ([1]; malonyl-CoA 2 mM) | type III PKS assay, LC-HRMS [2] | type III PKS assay, LC-HRMS [3] | type III PKS assay, LC-HRMS ([1]; lauryl-CoA 1 mM) |
| --- | --- | --- | --- | --- |
| CCCCCCCCCCCC(=O)SCCNC(=O)CCNC(=O)[C@H](O)C(C)(C)COP(=O)(O)OP(=O)(O)OC[C@H]1O[C@@H](n2cnc3c(N)ncnc32)[C@H](O)[C@@H]1OP(=O)(O)O [lauryl-CoA] | enzymatic reactions containing lauryl-CoA, malonyl-CoA and the type III PKSs as positive controls | enzymatic reactions containing lauryl-CoA, malonyl-CoA and the type III PKSs as positive controls | enzymatic reactions containing lauryl-CoA, malonyl-CoA and the type III PKSs as positive controls | – |
| CC(C)(COP(=O)(O)OP(=O)(O)OC[C@H]1O[C@@H](n2cnc3c(N)ncnc32)[C@H](O)[C@@H]1OP(=O)(O)O)[C@@H](O)C(=O)NCCC(=O)NCCSC(=O)CC(=O)O [malonyl-CoA] | – | – | enzymatic reactions containing lauryl-CoA, malonyl-CoA and the type III PKSs as positive controls | enzymatic reactions containing lauryl-CoA, malonyl-CoA and the type III PKSs as positive controls |
